Experimental findings from patent US10385019B2, “Inhibitors of EGFR and methods of use thereof” (Dana-Farber Cancer Institute, Inc., priority 2015, dated 2019) are described below.

The experiment deals with EGFR T790M/L858R Ba/F3 cell line (Homo sapiens, UniProt P00533, T790M/L858R, cells depend on it). The experiment can be described thus: Ba/F3 cell proliferation model. In kind it is cell-based, murine. The settings on record: combined with cetuximab (% cetuximab, 1.0 μM drug concentration with 1.0 μg/mL cetuximab). The essentials: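 Murine Ba/F3 cells made IL-3-independent by retroviral EGFR L858R/T790M, selected in puromycin (2 μg/ml) and kept in RPMI 1640 with 10% FBS. Cells were exposed to serially diluted compound for 72 h, with growth read by MTS assay in six wells per point and ≥3 repeats. Sigmoidal dose-response non-linear regression gave the values.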
Sequence of EGFR T790M/L858R Ba/F3 cell line (P00533 whole entry T790M/L858R): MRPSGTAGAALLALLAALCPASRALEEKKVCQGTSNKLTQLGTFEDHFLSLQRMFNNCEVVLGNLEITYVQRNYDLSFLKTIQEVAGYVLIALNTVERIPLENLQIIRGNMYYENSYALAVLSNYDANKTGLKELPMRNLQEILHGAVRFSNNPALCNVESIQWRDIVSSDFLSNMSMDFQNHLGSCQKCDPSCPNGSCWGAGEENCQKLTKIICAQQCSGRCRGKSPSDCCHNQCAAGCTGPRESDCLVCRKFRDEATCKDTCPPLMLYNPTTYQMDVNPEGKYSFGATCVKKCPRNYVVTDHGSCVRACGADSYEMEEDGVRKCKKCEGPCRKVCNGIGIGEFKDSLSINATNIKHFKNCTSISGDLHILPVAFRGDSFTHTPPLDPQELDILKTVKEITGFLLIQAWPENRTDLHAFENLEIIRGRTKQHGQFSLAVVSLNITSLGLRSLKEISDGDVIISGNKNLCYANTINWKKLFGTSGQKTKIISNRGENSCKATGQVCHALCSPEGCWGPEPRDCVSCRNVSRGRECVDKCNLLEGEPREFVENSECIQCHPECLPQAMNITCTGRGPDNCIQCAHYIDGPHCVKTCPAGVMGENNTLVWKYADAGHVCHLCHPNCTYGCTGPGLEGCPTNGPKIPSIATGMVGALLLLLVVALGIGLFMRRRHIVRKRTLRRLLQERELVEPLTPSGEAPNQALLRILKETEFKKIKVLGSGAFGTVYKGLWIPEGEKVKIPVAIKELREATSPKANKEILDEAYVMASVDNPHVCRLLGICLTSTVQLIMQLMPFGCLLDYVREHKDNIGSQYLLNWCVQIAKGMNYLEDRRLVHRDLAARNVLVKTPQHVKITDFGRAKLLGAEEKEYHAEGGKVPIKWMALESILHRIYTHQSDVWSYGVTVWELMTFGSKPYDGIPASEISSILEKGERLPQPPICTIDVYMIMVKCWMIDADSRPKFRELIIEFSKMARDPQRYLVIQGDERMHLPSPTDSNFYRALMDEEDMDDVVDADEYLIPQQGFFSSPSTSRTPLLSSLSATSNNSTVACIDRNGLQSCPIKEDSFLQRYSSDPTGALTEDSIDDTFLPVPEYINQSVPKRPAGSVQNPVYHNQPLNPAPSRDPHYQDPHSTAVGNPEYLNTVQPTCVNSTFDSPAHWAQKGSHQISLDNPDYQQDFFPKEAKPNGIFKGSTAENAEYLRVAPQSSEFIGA
As to `O=C(Nc1nccs1)[C@@H](c1ccccc1)N1Cc2ccc(C3=CCCCC3)cc2C1=O` [Compound I-86, (R)-2-(6-(cyclohex-1-en-1-yl)-1-oxoisoindolin-2-yl)-2-phenyl-N-(thiazol-2-yl)acetamide], the “Activity (% inhibition)” value is “B (a % inhibition of between about 50% to about 75%)”.
To `O=C(NCc1ccccc1)[C@@H](c1ccccc1)N1Cc2ccccc2C1=O` [Compound I-87, (R)-N-benzyl-2-(1-oxoisoindolin-2-yl)-2-phenylacetamide] belongs “A (a % inhibition of about 75%)”.
The same measure for `CN(C)CCNC(=O)c1cccc(-c2ccc3c(c2)C(=O)N([C@@H](C(=O)Nc2nccs2)c2ccccc2)C3)c1` [Compound I-88, (R)-N-(2-(dimethylamino)ethyl)-3-(3-oxo-2-(2-oxo-1-phenyl-2-(thiazol-2-ylamino)ethyl)isoindolin-5-yl)benzamide]: “C (a % inhibition of between about 25% to about 50%)”.
To `CN(C)CCCCNC(=O)c1cccc(-c2ccc3c(c2)C(=O)N([C@@H](C(=O)Nc2nccs2)c2ccccc2)C3)c1` [Compound I-89, (R)-N-(4-(dimethylamino)butyl)-(3-oxo-2-(2-oxo-1-phenyl-2-(thiazol-2-ylamino)ethyl)isoindolin-5-yl)benzamide] belongs “B (a % inhibition of between about 50% to about 75%)”.
Turning to `O=C(NCCN1CCOCC1)c1cccc(-c2ccc3c(c2)C(=O)N([C@@H](C(=O)Nc2nccs2)c2ccccc2)C3)c1` [Compound I-90, (R)-N-(2-morpholinoethyl)-3-(3-oxo-2-(2-oxo-1-phenyl-2-(thiazol-2-ylamino)ethyl)isoindolin-5-yl)benzamide], the “Activity (% inhibition)” value is listed as “C (a % inhibition of between about 25% to about 50%)”.
`O=C(NCCCN1CCOCC1)c1cccc(-c2ccc3c(c2)C(=O)N([C@@H](C(=O)Nc2nccs2)c2ccccc2)C3)c1` [Compound I-91, (R)-N-(3-morpholinopropyl)-3-(3-oxo-2-(2-oxo-1-phenyl-2-(thiazol-2-ylamino)ethyl)isoindolin-5-yl)benzamide]: the “Activity (% inhibition)” value was “D (a % inhibition of between about 0% to about 25%)”.
To `O=C(Nc1nccs1)[C@@H](c1ccccc1)N1Cc2ccc(-c3cccc(C(=O)N4CCOCC4)c3)cc2C1=O` [Compound I-92, (R)-2-(6-(3-(morpholine-4-carbonyl)phenyl)-1-oxoisoindolin-2-yl)-2-phenyl-N-(thiazol-2-yl)acetamide] belongs “C (a % inhibition of between about 25% to about 50%)”.
The same measure for `O=C(Nc1nccs1)[C@@H](c1ccccc1)N1Cc2cc(Nc3ccccc3)ccc2C1=O` [Compound I-93, (R)-2-(1-oxo-5-(phenylamino)isoindolin-2-yl)-2-phenyl-N-(thiazol-2-yl)acetamide]: “A (a % inhibition of about 75%)”; for `O=C(Nc1nccs1)[C@@H](c1ccccc1)N1Cc2cc(Nc3ccc(N4CCOCC4)cc3)ccc2C1=O` [Compound I-94, (R)-2-(5-((4-morpholinophenyl)amino)-1-oxoisoindolin-2-yl)-2-phenyl-(thiazol-2-yl)acetamide]: “C (a % inhibition of between about 25% to about 50%)”; for `O=C(Nc1nccs1)[C@@H](c1ccccc1)N1Cc2cc(Nc3cccc(CN4CCCC4)c3)ccc2C1=O` [Compound I-95, (R)-2-(1-oxo-5-((3-(pyrrolidin-1-ylmethyl)phenyl)amino)isoindolin-2-yl)-2-phenyl-N-(thiazol-2-yl)acetamide]: “B (a % inhibition of between about 50% to about 75%)”.
To `O=C(Nc1nccs1)[C@@H](c1ccccc1)N1Cc2cc(Nc3ccc(OCc4ccccc4)cc3)ccc2C1=O` [Compound I-96, (R)-2-(5-((4-(benzyloxy)phenyl)amino)-1-oxoisoindolin-2-yl)-2-phenyl-N-(thiazol-2-yl)acetamide] belongs “A (a % inhibition of about 75%)”.
With `O=C(Nc1nccs1)[C@@H](c1ccccc1)N1Cc2cc(Nc3cccc(F)c3)ccc2C1=O` [Compound I-97, (R)-2-(5-((3-fluorophenyl)amino)-1-oxoisoindolin-2-yl)-2-phenyl-N-(thiazol-2-yl)acetamide], the “Activity (% inhibition)” value was “A (a % inhibition of about 75%)”.
The same measure for `O=C(Nc1nccs1)[C@@H](c1ccccc1)N1Cc2ccc(Nc3ccccc3)cc2C1=O` [Compound I-98, (R)-2-(1-oxo-6-(phenylamino)isoindolin-2-yl)-2-phenyl-N-(thiazol-2-yl)acetamide]: “C (a % inhibition of between about 25% to about 50%)”; for `O=C(Nc1nccs1)[C@@H](c1ccccc1)N1Cc2ccc(Nc3cccc(F)c3)cc2C1=O` [Compound I-99, (R)-2-(6-((3-fluorophenyl)amino)-1-oxoisoindolin-2-yl)-2-phenyl-N-(thiazol-2-yl)acetamide]: “C (a % inhibition of between about 25% to about 50%)”.
For `O=C(Nc1nccs1)[C@@H](c1ccccc1)N1Cc2ccc(Nc3cccc(CN4CCCC4)c3)cc2C1=O` [Compound I-100, (R)-2-(1-oxo-6-((3-(pyrrolidin-1-ylmethyl)phenyl)amino)isoindolin-2-yl)-2-phenyl-N-(thiazol-2-yl)acetamide], the “Activity (% inhibition)” value is “D (a % inhibition of between about 0% to about 25%)”.
Turning to `O=C(Nc1nccs1)[C@@H](c1ccccc1)N1Cc2cc(-c3ccccc3F)ccc2C1=O` [Compound I-101, (R)-2-(5-(2-fluorophenyl)-1-oxoisoindolin-2-yl)-2-phenyl-N-(thiazol-2-yl)acetamide], the “Activity (% inhibition)” value is recorded as “B (a % inhibition of between about 50% to about 75%)”.
To `CN1CCN(c2ccc(-c3ccc4c(c3)CN([C@@H](C(=O)Nc3nccs3)c3ccccc3)C4=O)cc2)CC1` [Compound I-102, (R)-2-(5-(4-(4-methylpiperazin-1-yl)phenyl)-1-oxoisoindolin-2-yl)-2-phenyl-N-(thiazol-2-yl)acetamide] belongs “B (a % inhibition of between about 50% to about 75%)”; to `O=C(Nc1nccs1)[C@@H](c1ccccc1)N1Cc2cc(-c3ccc4c(c3)OCCO4)ccc2C1=O` [Compound I-103, (R)-2-(5-(2,3-dihydrobenzo[b] [1,4]dioxin-6-yl)-1-oxoisoindolin-2-yl)-2-phenyl-N-(thiazol-2-yl)acetamide], “C (a % inhibition of between about 25% to about 50%)”; to `O=C(Nc1nccs1)[C@@H](c1ccccc1)N1Cc2cc(-c3ccc4[nH]ccc4c3)ccc2C1=O` [Compound I-104, (R)-2-(5-(1H-indol-5-yl)-1-oxoisoindolin-2-yl)-2-phenyl-N-(thiazol-2-yl)acetamide], “C (a % inhibition of between about 25% to about 50%)”.
The same measure for `O=C(Nc1nccs1)[C@@H](c1ccccc1)N1Cc2cc(-c3ccccc3)ccc2C1=O` [Compound I-105, (R)-2-(1-oxo-5-phenylisoindolin-2-yl)-2-phenyl-N-(thiazol-2-yl)acetamide]: “B (a % inhibition of between about 50% to about 75%)”.
To `COC(=O)c1cc(Br)ccc1N[C@@H](C(=O)Nc1nccs1)c1ccccc1` [Compound I-106, methyl (R)-5-bromo-2-((2-oxo-1-phenyl-2-(thiazol-2-ylamino)ethyl)amino)benzoate] belongs “B (a % inhibition of between about 50% to about 75%)”; to `COC(=O)c1cc(Br)ccc1N[C@H](C(=O)Nc1nccs1)c1ccccc1` [Compound I-107, methyl (S)-5-bromo-2-((2-oxo-1-phenyl-2-(thiazol-2-ylamino)ethyl)amino)benzoate], “B (a % inhibition of between about 50% to about 75%)”.
Consider `O=C(Nc1nccs1)[C@@H](c1ccccc1)N1Cc2ccc(-c3ccccn3)cc2C1=O` [Compound I-108, (R)-2-(1-oxo-6-(pyridin-2-yl)isoindolin-2-yl)-2-phenyl-N-(thiazol-2-yl)acetamide], for which the “Activity (% inhibition)” value is “C (a % inhibition of between about 25% to about 50%)”.
As to `O=C(Nc1nccs1)[C@@H](c1cccc([N+](=O)[O-])c1)N1Cc2ccc(-c3ccc4[nH]ccc4c3)cc2C1=O` [Compound I-109, (R)-2-(6-(1H-indol-5-yl)-1-oxoisoindolin-2-yl)-2-(3-nitrophenyl)-N-(thiazol-2-yl)acetamide], the “Activity (% inhibition)” value is given as “B (a % inhibition of between about 50% to about 75%)”.
To `O=C(NCC(O)CO)c1cc(N[C@@H](C(=O)Nc2nccs2)c2ccccc2)ccc1[N+](=O)[O-]` (stereo partly drawn) [Compound I-110, N-(2,3-dihydroxypropyl)-2-nitro-5-(((R)-2-oxo-1-phenyl-2-(thiazol-2-ylamino)ethyl)amino)benzamide] belongs “A (a % inhibition of about 75%)”.
`O=C(NCC(O)CO)c1cc(Br)ccc1N[C@@H](C(=O)Nc1nccs1)c1ccccc1` (stereo partly drawn) [Compound I-111, 5-bromo-N-(2,3-dihydroxypropyl)-2-(((R)-2-oxo-1-phenyl-2-(thiazol-2-ylamino)ethyl)amino)benzamide]: the “Activity (% inhibition)” value is on record as “A (a % inhibition of about 75%)”.
To `N#Cc1ccc(-c2ccc3c(c2)C(=O)N([C@H](C(=O)Nc2nccs2)c2ccccc2)C3)cc1F` [Compound I-114, (S)-2-(6-(4-cyano-3-fluorophenyl)-1-oxoisoindolin-2-yl)-2-phenyl-N-(thiazol-2-yl)acetamide] belongs “B (a % inhibition of between about 50% to about 75%)”.
To `C[C@H](C(=O)Nc1nccs1)N1Cc2ccc(-c3ccc4[nH]ccc4c3)cc2C1=O` [Compound I-116, (R)-2-(6-(1H-indol-5-yl)-1-oxoisoindolin-2-yl)-N-(thiazol-2-yl)propanamide] belongs “A (a % inhibition of about 75%)”.
To `C[C@H](C(=O)Nc1nccs1)N1Cc2ccc(-c3ccc(N4CCN(C(=O)OC(C)(C)C)CC4)cc3)cc2C1=O` [Compound I-117, tert-butyl (R)-4-(4-(3-oxo-2-(1-oxo-1-(thiazol-2-ylamino)propan-2-yl)isoindolin-5-yl)phenyl)piperazine-1-carboxylate] belongs “A (a % inhibition of about 75%)”.
